PubChem BioAssay AID256 (DTP/NCI, 2004)
Values joined by “and” are separate entries in the source; they are usually repeats but may differ in a detail not shown here. Identical values can stand only once. Inconclusive results and toxic doses are left out.

Test system: CD2F1 mice, L1210 leukemia ip, survival T/C
Assay: NCI In Vivo Anticancer Drug Screen. Data for tumor model L1210 Leukemia (intraperitoneal) in CD2F1 (CDF1) mice
Settings: higher = longer survival
In short: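 In this screen, transplantable tumors were grown in mice given either the compound or its vehicle. Results were expressed as the treated measurement relative to the control measurement.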

[1] = endpoint: mean survival time, dose: 100.0 mg/kg/injection, schedule: Q01DX009 (ip), vehicle: saline with Tween-80
[2] = endpoint: mean survival time, dose: 200.0 mg/kg/injection, schedule: Q01DX009 (ip), vehicle: saline with Tween-80
[3] = endpoint: mean survival time, dose: 400.0 mg/kg/injection, schedule: Q01DX009 (ip), vehicle: saline with Tween-80

O=C(Nc1ccc(O)cc1)c1c(O)[nH]c(=S)[nH]c1=O
T/C (endpoint: median survival time, dose: 12.5 mg/kg/injection, schedule: Q01DX009 (ip), vehicle: saline with Tween-80): 107 % of control
T/C (endpoint: median survival time, dose: 25.0 mg/kg/injection, schedule: Q01DX009 (ip), vehicle: saline with Tween-80): 106 % of control
T/C (endpoint: median survival time, dose: 50.0 mg/kg/injection, schedule: Q01DX009 (ip), vehicle: saline with Tween-80): 106 % of control
T/C (endpoint: median survival time, dose: 100.0 mg/kg/injection, schedule: Q01DX009 (ip), vehicle: saline with Tween-80): 100 % of control

O=C(O)CCCSc1nn(C2OC(CO)C(O)C2O)c(=O)[nH]c1=O (configuration not stated)
T/C (endpoint: mean survival time, dose: 12.5 mg/kg/injection, schedule: Q01DX005 (ip), vehicle: water): 104 % of control
T/C (endpoint: mean survival time, dose: 25.0 mg/kg/injection, schedule: Q01DX005 (ip), vehicle: water): 104 % of control
T/C (endpoint: mean survival time, dose: 50.0 mg/kg/injection, schedule: Q01DX005 (ip), vehicle: water): 104 % of control
T/C (endpoint: mean survival time, dose: 100.0 mg/kg/injection, schedule: Q01DX005 (ip), vehicle: water): 101 % of control
T/C (endpoint: mean survival time, dose: 200.0 mg/kg/injection, schedule: Q01DX005 (ip), vehicle: water): 101 % of control

O=CC(O)C(O)C(O)C(O)C(=O)O.O=CC(O)C(O)C(O)C(O)C(=O)O.[NH-]C1CCCCC1[NH-].[Pt+2] (configuration not stated)
T/C (endpoint: mean survival time, dose: 1.56 mg/kg/injection, schedule: Q04DX003 (ip), vehicle: saline): 118 % of control
T/C (endpoint: mean survival time, dose: 3.12 mg/kg/injection, schedule: Q04DX003 (ip), vehicle: saline): 114 % of control
T/C (endpoint: mean survival time, dose: 6.25 mg/kg/injection, schedule: Q04DX003 (ip), vehicle: saline): 191 % of control and 184 % of control
T/C (endpoint: mean survival time, dose: 12.5 mg/kg/injection, schedule: Q04DX003 (ip), vehicle: saline): 212 % of control and 168 % of control and 213 % of control
T/C (endpoint: mean survival time, dose: 25.0 mg/kg/injection, schedule: Q04DX003 (ip), vehicle: saline): 274 % of control [middle of 4 runs]
T/C (endpoint: mean survival time, dose: 50.0 mg/kg/injection, schedule: Q04DX003 (ip), vehicle: saline): 154 % of control and 216 % of control and 330 % of control
T/C (endpoint: median survival time, dose: 3.12 mg/kg/injection, schedule: Q04DX003 (ip), vehicle: saline): 104 % of control
T/C (endpoint: median survival time, dose: 6.25 mg/kg/injection, schedule: Q04DX003 (ip), vehicle: saline): 106 % of control
T/C (endpoint: median survival time, dose: 12.5 mg/kg/injection, schedule: Q04DX003 (ip), vehicle: saline): 106 % of control
T/C (endpoint: median survival time, dose: 25.0 mg/kg/injection, schedule: Q04DX003 (ip), vehicle: saline): 107 % of control
T/C (endpoint: median survival time, dose: 50.0 mg/kg/injection, schedule: Q04DX003 (ip), vehicle: saline): 111 % of control
T/C (endpoint: median survival time, dose: 100.0 mg/kg/injection, schedule: Q04DX003 (ip), vehicle: saline): 110 % of control
T/C (endpoint: median survival time, dose: 200.0 mg/kg/injection, schedule: Q04DX003 (ip), vehicle: saline): 116 % of control

NC(=O)C1CCCCC1C(N)=O (configuration not stated)
T/C [1]: 105 % of control
T/C [2]: 105 % of control
T/C [3]: 103 % of control

CC(=O)Cc1nc(N)nc(Nc2ccc(Cl)c(Cl)c2)n1
T/C (endpoint: mean survival time, dose: 100.0 mg/kg/injection, schedule: Q01DX009 (ip), vehicle: saline): 96 % of control
T/C (endpoint: mean survival time, dose: 200.0 mg/kg/injection, schedule: Q01DX009 (ip), vehicle: saline): 97 % of control
T/C (endpoint: mean survival time, dose: 400.0 mg/kg/injection, schedule: Q01DX009 (ip), vehicle: saline): 111 % of control

CCCCCCCCN(CCCCCCCC)CC(O)c1ccc2c(c1)Sc1ccccc1O2 (configuration not stated)
T/C (endpoint: mean survival time, dose: 75.0 mg/kg/injection, schedule: Q01DX001 (ip), vehicle: saline): 93 % of control
T/C (endpoint: mean survival time, dose: 150.0 mg/kg/injection, schedule: Q01DX001 (ip), vehicle: saline): 90 % of control

CC(=O)/C(C)=C\c1ccccc1
T/C [1]: 96 % of control
T/C (endpoint: mean survival time, dose: 100.0 mg/kg/injection, schedule: Q04DX003 (ip), vehicle: saline with Tween-80): 92 % of control
T/C [2]: 94 % of control
T/C (endpoint: mean survival time, dose: 200.0 mg/kg/injection, schedule: Q04DX003 (ip), vehicle: saline with Tween-80): 94 % of control
T/C [3]: 98 % of control
T/C (endpoint: mean survival time, dose: 400.0 mg/kg/injection, schedule: Q04DX003 (ip), vehicle: saline with Tween-80): 94 % of control

COc1ccc([I+]c2ccc(OC)cc2)cc1
T/C (endpoint: mean survival time, dose: 1.5 mg/kg/injection, schedule: Q01DX009 (ip), vehicle: saline with Tween-80): 101 % of control
T/C (endpoint: mean survival time, dose: 3.0 mg/kg/injection, schedule: Q01DX009 (ip), vehicle: saline with Tween-80): 104 % of control
T/C (endpoint: mean survival time, dose: 6.0 mg/kg/injection, schedule: Q01DX009 (ip), vehicle: saline with Tween-80): 107 % of control
T/C (endpoint: mean survival time, dose: 12.5 mg/kg/injection, schedule: Q04DX003 (ip), vehicle: saline with Tween-80): 97 % of control
T/C (endpoint: mean survival time, dose: 25.0 mg/kg/injection, schedule: Q04DX003 (ip), vehicle: saline with Tween-80): 93 % of control
T/C (endpoint: mean survival time, dose: 50.0 mg/kg/injection, schedule: Q04DX003 (ip), vehicle: saline with Tween-80): 93 % of control
